According to paper PMC11434480, “Discovery and Optimization of Ergosterol Peroxide Derivatives as Novel Glutaminase 1 Inhibitors for the Treatment of Triple-Negative Breast Cancer” (Molecules, 2024):

Experiments:
HepG2 = assay: MTT antiproliferative assay, HepG2; type: cell-based, human; conditions: mean of three experiments ± SD
Procedure: (§1) The in vitro antiproliferative activity of the novel EP derivatives (1a–h, 2a–h, 3a–h, and 4a–h) was evaluated on four different human cancer cell lines (A549, HepG2, MCF-7, and MDA-MB-231) using an MTT assay.
(§2) Cells containing 10% fetal bovine serum (FBS; WISENT, Nanjing, China) were cultured in an L-15 culture medium (L-15, BOSTER, Wuhan, China) in an incubator at 37 °C. The cells were then inoculated into 96-well plates at a density of 5 × 10^3/well, cultured in 100 μL L-15 medium for 24 h, and incubated with the compound to be tested for 48 h. Next, 20 μL of MTT (5 mg/mL) solution was added and incubated at 37 °C for 4 h away from light. A resorption culture medium was then supplemented with 150 μL DMSO per well. The absorbance was measured at 570 nm using an enzymometer (SAFIRE2, Tecan, Swiss Confederation, Männedorf, Switzerland). The cytotoxic activity was presented in terms of half the inhibition rate.

MCF-7 = assay: MTT antiproliferative assay, MCF-7; type: cell-based, human; conditions: mean of three experiments ± SD
Procedure: as §1, §2

MDA-MB-231 = assay: MTT antiproliferative assay, MDA-MB-231; type: cell-based, human; conditions: MTT, 48 h, mean of three experiments ± SD
Procedure: as §1, §2

A549 = assay: MTT antiproliferative assay, A549; type: cell-based, human; conditions: mean of three experiments ± SD
Procedure: as §1, §2

human GLS1 = molecular target: T1, human GLS1 (Homo sapiens, UniProt O94925); assay: GLS1 inhibitor screening kit in MDA-MB-231 cells; type: cell-based; conditions: 48 h, read-out: GLS1 inhibition IC50
T1 sequence (O94925 55-669): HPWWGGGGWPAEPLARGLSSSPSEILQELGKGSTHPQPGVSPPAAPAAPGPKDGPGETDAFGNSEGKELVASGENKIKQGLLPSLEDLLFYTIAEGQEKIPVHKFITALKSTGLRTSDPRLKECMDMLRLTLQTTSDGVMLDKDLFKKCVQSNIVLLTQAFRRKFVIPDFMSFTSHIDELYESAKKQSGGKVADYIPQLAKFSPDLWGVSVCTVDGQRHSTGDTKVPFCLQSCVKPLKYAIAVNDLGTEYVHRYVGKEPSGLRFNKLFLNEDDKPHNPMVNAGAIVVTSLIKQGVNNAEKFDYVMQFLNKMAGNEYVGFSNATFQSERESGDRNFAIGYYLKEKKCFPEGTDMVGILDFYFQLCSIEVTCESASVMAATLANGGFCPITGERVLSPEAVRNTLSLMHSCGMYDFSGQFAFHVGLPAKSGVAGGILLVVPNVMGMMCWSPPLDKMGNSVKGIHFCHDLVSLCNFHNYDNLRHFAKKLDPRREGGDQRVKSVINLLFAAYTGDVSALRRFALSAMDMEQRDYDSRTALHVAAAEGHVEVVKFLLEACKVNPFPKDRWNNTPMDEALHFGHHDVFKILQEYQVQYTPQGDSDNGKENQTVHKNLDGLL
Procedure: The GLS1 inhibitory activity of compound 3g in MDA-MB-231 cells was evaluated using a GLS1 inhibitor screening kit.
MDA-MB-231 cells were cultured for 24 h and then incubated with different concentrations of 3g or 0.1%DMSO for 48 h and washed with PBS 1–2 times. The cells were then collected, subjected to ultrasound in an ice bath for 5 min, and centrifuged at 4 °C and 1200 g for 15 min. Next, the GLS1 activity in human GLS1 was evaluated according to the manufacturer’s guidelines using a GLS1 screening kit (Sangon Biotech #D799306, Shanghai, China) in a 96-well plate (Corning # 351172, New York, NY, USA).

Structure (SMILES) | IC50 (HepG2; Homo sapiens, HepG2, 48 h) [µM] | IC50 (MCF-7; Homo sapiens, MCF7, 48 h) [µM] | IC50 (MDA-MB-231; Homo sapiens, MDA-MB-231) [µM] | IC50 (A549; Homo sapiens, A549, 48 h) [µM] | IC50 (human GLS1) [µM] | IC50 (HepG2; 48 h) [µM] | IC50 (MCF-7; 48 h) [µM] | IC50 (MDA-MB-231) [µM] | IC50 (A549; 48 h) [µM]
CC(C)C(C)C=CC(C)C1CCC2C1(C)CCC1C23C=CC2(CC(OC(=O)c4ccccc4C(=O)Nc4ccc5ccccc5c4)CCC12C)OO3 (centres unmarked) [Compound 4h, Ergosterol peroxide-3-(2-(naphthalen-2-ylcarbamoyl)benzoate)] | 14.3 ± 1.55 | 11.4 ± 0.42 | 14.6 ± 0.47 | 10.1 ± 1.16 |  |  |  |  | 
CC(C)C(C)C=CC(C)C1CCC2C1(C)CCC1C23C=CC2(CC(OC(=O)c4ccccc4C(=O)Nc4nc5ccc(F)cc5s4)CCC12C)OO3 (centres unmarked) [Compound 4d, Ergosterol peroxide-3-(2-((6-fluorobenzo[d]thiazol-2-yl)carbamoyl)benzoate)] | 15.3 ± 1.31 | 10.6 ± 0.52 | 11.3 ± 0.44 | 8.99 ± 0.81 |  |  |  |  | 
CC(C)C(C)C=CC(C)C1CCC2C1(C)CCC1C23C=CC2(CC(OC(=O)CCCC(=O)Nc4ccccc4)CCC12C)OO3 (centres unmarked) [Compound 3e, Ergosterol peroxide-3-(5-oxo-5-(phenylamino)pentanoate)] | 14.9 ± 1.13 | 11.6 ± 0.66 | 4.78 ± 0.41 | 10.5 ± 0.79 |  |  |  |  | 
CC(C)C(C)C=CC(C)C1CCC2C1(C)CCC1C23C=CC2(CC(OC(=O)c4ccccc4C(=O)Nc4ccc(F)cc4)CCC12C)OO3 (centres unmarked) [Compound 4f, Ergosterol peroxide-3-(2-((4-fluorophenyl)carbamoyl)benzoate)] | 9.02 ± 0.87 | 9.64 ± 0.51 | 13.4 ± 1.24 | 18.8 ± 0.64 |  |  |  |  | 
CC(C)C(C)C=CC(C)C1CCC2C1(C)CCC1C23C=CC2(CC(OC(=O)CCCC(=O)Nc4nc5ccc(F)cc5s4)CCC12C)OO3 (centres unmarked) [Compound 3d, Ergosterol peroxide-3-(5-((6-fluorobenzo[d]thiazol-2-yl)amino)-5-oxopentanoate)] | 14.7 ± 0.35 | 8.39 ± 0.34 | 10.8 ± 0.53 | 9.09 ± 0.64 |  |  |  |  | 
O=C(Cc1ccccc1)Nc1nnc(CCSCCc2nnc(NC(=O)Cc3ccccc3)s2)s1 [BPTES, reference compound] | 60.2 ± 8.35 | 21.3 ± 6.89 | 9.1 ± 0.26 | 49.1 ± 11.6 |  |  |  |  | 
CC(C)[C@@H](C)/C=C/[C@@H](C)[C@H]1CC[C@@H]2[C@]1(C)CC[C@H]1[C@]23C=C[C@]2(C[C@@H](O)CC[C@]12C)OO3 [EP, Ergosterol peroxide] | 18.1 ± 1.71 | 19.4 ± 1.5 | 17.3 ± 1.05 | 15 ± 1.27 | 33.7 |  |  |  | 
CC(C)C(C)C=CC(C)C1CCC2C1(C)CCC1C23C=CC2(CC(OC(=O)CCCC(=O)Nc4nc5cc(F)ccc5s4)CCC12C)OO3 (centres unmarked) [Compound 3c, Ergosterol peroxide-3-(5-((5-fluorobenzo[d]thiazol-2-yl)amino)-5-oxopentanoate)] | 11.9 ± 1.07 | 11 ± 0.62 | 12 ± 0.72 | 11.4 ± 0.79 |  |  |  |  | 
CC(C)C(C)C=CC(C)C1CCC2C1(C)CCC1C23C=CC2(CC(OC(=O)CCCC(=O)Nc4nncs4)CCC12C)OO3 (centres unmarked) [Compound 3a, Ergosterol peroxide-3-(5-((1,3,4-thiadiazol-2-yl)amino)-5-oxopentanoate)] | 10.7 ± 0.82 | 5.16 ± 0.93 | 7.06 ± 0.35 | 9.73 ± 0.42 |  |  |  |  | 
CC(C)C(C)C=CC(C)C1CCC2C1(C)CCC1C23C=CC2(CC(OC(=O)CCCC(=O)Nc4ccc5ccccc5c4)CCC12C)OO3 (centres unmarked) [Compound 3h, Ergosterol peroxide-3-(5-(naphthalen-2-ylamino)-5-oxopentanoate)] | 13.8 ± 1.3 | 8.65 ± 0.73 | 4.98 ± 0.84 | 9.3 ± 0.66 |  |  |  |  | 
CC(C)C(C)C=CC(C)C1CCC2C1(C)CCC1C23C=CC2(CC(OC(=O)CCCC(=O)Nc4ccc(F)cc4)CCC12C)OO3 (centres unmarked) [Compound 3f, Ergosterol peroxide-3-(5-((4-fluorophenyl)amino)-5-oxopentanoate)] | 9.79 ± 1.01 | 8.09 ± 0.71 | 7.19 ± 0.39 | 11.1 ± 0.93 |  |  |  |  | 
N.N.[Cl][Pt][Cl] [Cisplatin, reference compound] |  |  |  |  |  | 6.29 ± 0.3 | 4.23 ± 0.24 | 10.4 ± 0.34 | 11.6 ± 0.38
CC(C)C(C)C=CC(C)C1CCC2C1(C)CCC1C23C=CC2(CC(OC(=O)c4ccccc4C(=O)Nc4nc5cc(F)ccc5s4)CCC12C)OO3 (centres unmarked) [Compound 4c, Ergosterol peroxide-3-(2-((5-fluorobenzo[d]thiazol-2-yl)carbamoyl)benzoate)] | 11.4 ± 0.98 | 10.7 ± 0.47 | 7.32 ± 0.58 | 11.7 ± 1.02 |  |  |  |  | 
CC(C)C(C)C=CC(C)C1CCC2C1(C)CCC1C23C=CC2(CC(OC(=O)CCCC(=O)Nc4nccs4)CCC12C)OO3 (centres unmarked) [Compound 3b, Ergosterol peroxide-3-(5-oxo-5-(thiazol-2-ylamino)pentanoate)] | 13.1 ± 1.22 | 9.47 ± 0.75 | 6.92 ± 0.28 | 11.7 ± 0.82 |  |  |  |  | 
CC(C)C(C)C=CC(C)C1CCC2C1(C)CCC1C23C=CC2(CC(OC(=O)c4ccccc4C(=O)Nc4nccs4)CCC12C)OO3 (centres unmarked) [Compound 4b, Ergosterol peroxide-3-(2-oxo-5-((thiazol-2-yl)carbamoyl)benzoate)] | 11 ± 0.76 | 12.6 ± 0.94 | 15.8 ± 1.26 | 12.8 ± 1.08 |  |  |  |  | 
CC(C)C(C)C=CC(C)C1CCC2C1(C)CCC1C23C=CC2(CC(OC(=O)c4ccccc4C(=O)Nc4nncs4)CCC12C)OO3 (centres unmarked) [Compound 4a, Ergosterol peroxide-3-(2-((1,3,4-thiadiazol-2-yl)carbamoyl)benzoate)] | 8.08 ± 0.64 | 8.2 ± 0.68 | 10.2 ± 0.62 | 7.07 ± 0.47 |  |  |  |  | 
